# Assay results as given in patent US8927717B1, “Thiochromeno[2,3-c]quinolin-12-one derivatives, preparation method and application thereof” (National Defense Medical Center, priority 2014, dated 2015).
# How the values were obtained:
# SK-OV-3 = type: cell-based; conditions: Ovarian cancer; 10^−5 molar; 48 hours; SRB
# SNB-75 = type: cell-based; conditions: CNS cancer; 10^−5 molar; 48 hours; SRB
# SN12C = type: cell-based; conditions: Renal cancer; 10^−5 molar; 48 hours; SRB
# SK-MEL-28 = type: cell-based; conditions: Melanoma; 10^−5 molar; 48 hours; SRB
# NCI-H522 = type: cell-based; conditions: Non-small cell lung cancer; 10^−5 molar; 48 hours; SRB
# IGROV1 = type: cell-based; conditions: Ovarian cancer; 10^−5 molar; 48 hours; SRB
# CAKI-1 = type: cell-based; conditions: Renal cancer; 10^−5 molar; 48 hours; SRB
# T-47D = type: cell-based; conditions: Breast cancer; 10^−5 molar; 48 hours; SRB
# SK-MEL-2 = type: cell-based; conditions: Melanoma; 10^−5 molar; 48 hours; SRB
# SR = type: cell-based; conditions: Leukemia; 10^−5 molar; 48 hours; SRB
# SF-539 = type: cell-based; conditions: CNS cancer; 10^−5 molar; 48 hours; SRB
# UACC-257 = type: cell-based; conditions: Melanoma; 10^−5 molar; 48 hours; SRB
# UO-31 = type: cell-based; conditions: Renal cancer; 10^−5 molar; 48 hours; SRB
# NCI-H460 = type: cell-based; conditions: Non-small cell lung cancer; 10^−5 molar; 48 hours; SRB
# MDA-MB-231/ATCC = type: cell-based; conditions: Breast cancer; 10^−5 molar; 48 hours; SRB
# HS 578T = type: cell-based; conditions: Breast cancer; 10^−5 molar; 48 hours; SRB
# OVCAR-4 = type: cell-based; conditions: Ovarian cancer; 10^−5 molar; 48 hours; SRB
# DU-145 = type: cell-based; conditions: Prostate cancer; 10^−5 molar; 48 hours; SRB
# K-562 = type: cell-based; conditions: Leukemia; 10^−5 molar; 48 hours; SRB
# BT-549 = type: cell-based; conditions: Breast cancer; 10^−5 molar; 48 hours; SRB
# TK-10 = type: cell-based; conditions: Renal cancer; 10^−5 molar; 48 hours; SRB
# MDA-MB-486 = type: cell-based; conditions: Breast cancer; 10^−5 molar; 48 hours; SRB
# MOLT-4 = type: cell-based; conditions: Leukemia; 10^−5 molar; 48 hours; SRB
# HT29 = type: cell-based; conditions: Colon cancer; 10^−5 molar; 48 hours; SRB
# NCI-H226 = type: cell-based; conditions: Non-small cell lung cancer; 10^−5 molar; 48 hours; SRB
# SK-MEL-5 = type: cell-based; conditions: Melanoma; 10^−5 molar; 48 hours; SRB
# RXF 393 = type: cell-based; conditions: Renal cancer; 10^−5 molar; 48 hours; SRB
# 60 cancer cell lines = test: NCI 60-cell screen, SRB, whole panel (mean, delta, range); type: cell-based; conditions: 10^−5 molar, 48 hours, SRB
# NCI/ADR-RES = type: cell-based; conditions: Ovarian cancer; 10^−5 molar; 48 hours; SRB
# MDA-MB-435 = type: cell-based; conditions: Melanoma; 10^−5 molar; 48 hours; SRB
# ACHN = type: cell-based; conditions: Renal cancer; 10^−5 molar; 48 hours; SRB
# SNB-19 = type: cell-based; conditions: CNS cancer; 10^−5 molar; 48 hours; SRB
# OVCAR-8 = type: cell-based; conditions: Ovarian cancer; 10^−5 molar; 48 hours; SRB
# KM12 = test: cells; type: cell-based; conditions: Colon cancer; 10^−5 molar; 48 hours; SRB
# MCF7 = type: cell-based; conditions: Breast cancer; 10^−5 molar; 48 hours; SRB
# M14 = type: cell-based; conditions: Melanoma; 10^−5 molar; 48 hours; SRB
# SF-268 = type: cell-based; conditions: CNS cancer; 10^−5 molar; 48 hours; SRB
# SW-620 = type: cell-based; conditions: Colon cancer; 10^−5 molar; 48 hours; SRB
# CCRF-CEM = type: cell-based; conditions: Leukemia; 10^−5 molar; 48 hours; SRB
# HCC-2998 = type: cell-based; conditions: Colon cancer; 10^−5 molar; 48 hours; SRB
# UACC-62 = type: cell-based; conditions: Melanoma; 10^−5 molar; 48 hours; SRB
# A498 = type: cell-based; conditions: Renal cancer; 10^−5 molar; 48 hours; SRB
# A549/ATCC = type: cell-based; conditions: Non-small cell lung cancer; 10^−5 molar; 48 hours; SRB
# RPMI-8226 = type: cell-based; conditions: Leukemia; 10^−5 molar; 48 hours; SRB
# COLO 205 = type: cell-based; conditions: Colon cancer; 10^−5 molar; 48 hours; SRB
# OVCAR-5 = type: cell-based; conditions: Ovarian cancer; 10^−5 molar; 48 hours; SRB
# U251 = type: cell-based; conditions: CNS cancer; 10^−5 molar; 48 hours; SRB
# HCT-116 = type: cell-based; conditions: Colon cancer; 10^−5 molar; 48 hours; SRB
# HOP-92 = type: cell-based; conditions: Non-small cell lung cancer; 10^−5 molar; 48 hours; SRB
# SF-295 = type: cell-based; conditions: CNS cancer; 10^−5 molar; 48 hours; SRB
# HOP-62 = type: cell-based; conditions: Non-small cell lung cancer; 10^−5 molar; 48 hours; SRB
# MALME-3M = type: cell-based; conditions: Melanoma; 10^−5 molar; 48 hours; SRB
# 786-0 = type: cell-based; conditions: Renal cancer; 10^−5 molar; 48 hours; SRB
# LOX IMVI = type: cell-based; conditions: Melanoma; 10^−5 molar; 48 hours; SRB
# HL-60(TB) = type: cell-based; conditions: Leukemia; 10^−5 molar; 48 hours; SRB
# HCT-15 = type: cell-based; conditions: Colon cancer; 10^−5 molar; 48 hours; SRB
# PC-3 = type: cell-based; conditions: Prostate cancer; 10^−5 molar; 48 hours; SRB
# NCI-H23 = type: cell-based; conditions: Non-small cell lung cancer; 10^−5 molar; 48 hours; SRB
smiles,measurement,setting,value
"CNc1nc2ccccc2c2c(=O)c3cc(Cl)ccc3sc12 [Compound N1, 10-Chloro-6-methylamino-12H-thiochromeno[2,3-c]quinolin-12-one]",Growth percent SK-OV-3,SK-OV-3,88.67%
same,Growth percent SNB-75,SNB-75,67.29%
same,Growth percent SN12C,SN12C,92.52%
same,Growth percent SK-MEL-28,SK-MEL-28,83.41%
same,Growth percent NCI-H522,NCI-H522,97.00%
same,Growth percent IGROV1,IGROV1,67.97%
same,Growth percent CAKI-1,CAKI-1,68.09%
same,Growth percent T-47D,T-47D,42.13%
same,Growth percent SK-MEL-2,SK-MEL-2,110.10%
same,Growth percent SR,SR,47.76%
same,Growth percent SF-539,SF-539,59.86%
same,Growth percent UACC-257,UACC-257,91.23%
same,Growth percent UO-31,UO-31,65.34%
same,Growth percent NCI-H460,NCI-H460,73.84%
same,Growth percent MDA-MB-231/ATCC,MDA-MB-231/ATCC,66.58%
same,melting point,,237 to 238 °C
same,Growth percent HS 578T,HS 578T,82.63%
same,Growth percent OVCAR-4,OVCAR-4,71.33%
same,Growth percent DU-145,DU-145,80.29%
same,Growth percent K-562,K-562,40.69%
same,Growth percent BT-549,BT-549,108.49%
same,Growth percent TK-10,TK-10,81.21%
same,Growth percent MDA-MB-486,MDA-MB-486,8.75%
same,Growth percent MOLT-4,MOLT-4,86.86%
same,Growth percent HT29,HT29,114.79%
same,Growth percent NCI-H226,NCI-H226,73.53%
same,Growth percent SK-MEL-5,SK-MEL-5,80.13%
same,Growth percent RXF 393,RXF 393,84.52%
same,"Growth percent, Delta",60 cancer cell lines; delta over the cell panel,66.31%
same,"Growth percent, Mean",60 cancer cell lines; mean over the cell panel,75.06%
same,"Growth percent, Range",60 cancer cell lines; range over the cell panel,122.91%
same,Growth percent NCI/ADR-RES,NCI/ADR-RES,70.95%
same,Growth percent MDA-MB-435,MDA-MB-435,84.97%
same,Growth percent ACHN,ACHN,84.47%
same,Growth percent SNB-19,SNB-19,96.48%
same,Growth percent OVCAR-8,OVCAR-8,31.61%
same,Growth percent KM12,KM12,68.75%
same,Growth percent MCF7 (Table 2: MCF),MCF7,23.26%
same,Growth percent M14,M14,105.85%
same,Growth percent SF-268,SF-268,70.58%
same,Growth percent SW-620,SW-620,84.37%
same,Growth percent CCRF-CEM,CCRF-CEM,79.77%
same,Growth percent HCC-2998,HCC-2998,105.34%
same,Growth percent UACC-62,UACC-62,77.66%
same,Growth percent A498,A498,82.89%
same,Growth percent A549/ATCC,A549/ATCC,51.68%
same,Growth percent RPMI-8226,RPMI-8226,93.10%
same,Growth percent COLO 205,COLO 205,94.82%
same,Growth percent OVCAR-5,OVCAR-5,86.91%
same,Growth percent U251,U251,85.19%
same,Growth percent HCT-116,HCT-116,32.49%
same,Growth percent HOP-92,HOP-92,59.15%
same,Growth percent SF-295,SF-295,89.04%
same,Growth percent HOP-62,HOP-62,79.39%
same,Growth percent MALME-3M,MALME-3M,72.46%
same,Growth percent 786-0,786-0,95.51%
same,Growth percent LOX IMVI,LOX IMVI,44.95%
same,Growth percent HL-60(TB),HL-60(TB),131.66%
same,Growth percent HCT-15,HCT-15,68.73%
same,Growth percent PC-3,PC-3,61.41%
same,Growth percent NCI-H23,NCI-H23,44.39%
